Key:
[1] = tested on: angiotensin model of hypertensive rats; test: Invasive blood pressure recording in angiotensin II acute hypertension model; format: in vivo, male Wistar rats; conditions: for anti-hypertensive effect: current study, IV SNEDDS formulation, angiotensin II infused rats
Procedure: (§1) Six-week-old male Wistar rats with a weight of (250-275 g) were obtained from Zagazig University. They were kept in clear cages made of polypropylene and with good ventilation (3-4 rats in each cage), under constant environmental conditions of 22±2° C. temperature, 50-60% relative humidity and 12-h day and night cycle. Unlimited rodent pellet food and purified water were provided to the rats. The experimental design and animal handling procedures were as indicated by the guidelines of the Ethical Committee for Animal Handling at Zagazig University.
The blood pressure was recorded invasively in real. The rats were subjected to anesthesia with single intraperitoneal injection of 100 mg/kg ketamine and 10 mg/kg xylazine. Animals' body temperature was held at 37° C. by means of a rectal probe and automated heating pads. A micro-tip pressure volume catheter (PV catheter, SPR-901, Millar Instruments, Houston, Tex., USA) was inserted via a small opening into the right carotid artery. This instrument can continuously monitor the arterial pressure. The micro-tip catheter was linked via a Power Lab Data Interface to a computer running the Lab Chart professional software (v8.0, AD Instruments, Bella Vista, Australia) incorporating blood pressure (BP) module. Following a stabilization time of 5 min, readings were continuously recorded. The BP module was employed to monitor the systolic and diastolic blood pressure.
(§2) After 10 min (stabilization period) of basal recording of invasive blood pressure and ECG, angiotensin II (120 ng/min/kg) was slowly infused through the femoral vein using syringe pump and continued throughout the experiment duration.
(§3) Invasive blood hemodynamics and ECG were continuously recorded throughout the experiment. Saline (0.3 ml) was injected in time control experiments.
(§4) Values of the present study presented in form of mean ±SEM. Statistical analysis was carried out using the Prism 5 computer program (Graph Pad, USA). Statistical comparison was done using repeated measures Two way analysis of variance (ANOVA) followed by Bonferroni' post-hoc test of baseline-corrected data and P<0.05 was considered significant.

[2] = tested on: angiotensin model of hypertensive rats; test: Electrocardiogram (ECG) recording in angiotensin II acute hypertension model; format: in vivo, male Wistar rats; conditions: IV formulation
Procedure: as §1
A Powerlab® system (AD Instruments, Bella Vista, Australia) linked to a computer running the LabChart professional software with the ECG module was employed to record the standard surface ECG according to the methodology outlined in a previous report by our group. The ECG module quantitatively assesses the various elements of the ECG.
as §2, §3, §4

[3] = previous report; cited from earlier work
[4] = IV formulation, 10 min after doses 24 and 36 μg/kg, vs vehicle group, p<0.05
[5] = dose 36 μg/kg, vs vehicle group, p<0.05

| SMILES | reflex tachycardia ([1]; IV SNEDDS containing 10% linoleic acid) | dicrotic notch pressure [1, 4] | pulse pressure [1, 4] | non-ejection duration ([1]; IV formulation, dose 36 μg/kg, vs vehicle group) | SDP difference (systolic blood pressure-dicrotic notch pressure difference) ([1]; IV formulation, doses 12, 24 and 36 μg/kg, vs vehicle group, p<0.05) | ejection duration ([1]; IV formulation, doses 24 and 36 μg/kg, vs vehicle group) | time to peak ([1]; IV formulation, vs vehicle group) | systolic blood pressure ([1]; IV linoleic acid SNEDDS formulation, 12, 24 and 36 μg/kg, 10 min after each dose, p<0.05) | diastolic blood pressure ([1]; IV linoleic acid SNEDDS formulation, significant at 24 and 36 μg/kg vs plain IV formulation, p<0.05) | anti-hypertensive effect [1] | heart rate ([1]; medicated IV formulation compared with the plain IV formulation) | JT interval ([2]; 12, 24, 36 μg/kg) | P-wave duration ([2]; 12, 24, 36 μg/kg) | PR interval ([2]; 12, 24, 36 μg/kg) | QTc interval ([2]; 12, 24, 36 μg/kg) | R wave amplitude [2, 5] | T wave amplitude [2, 5] | vasodilation activity [3] |
| --- | --- | --- | --- | --- | --- | --- | --- | --- | --- | --- | --- | --- | --- | --- | --- | --- | --- | --- |
| COc1cc(-c2cc(=O)c3c(O)c(OC)c(OC)cc3o2)cc(OC)c1OC [Compound 1, umuhengerin] | without reflex tachycardia | significant reduction | significant reduction | significant increase | significant reduction | significant decrease | no change | gradual dose dependent reduction | gradual and reached a plateau with statistical significance | observed | did not produced any further effect | no significant effect | did not affect | did not affect | no significant effect | significant decrease | increase | significant vasodilation activity |
| COc1ccc(-c2cc(=O)c3c(O)cc(O)cc3o2)cc1OC [Compound 4, luteolin-3′,4′ -dimethyl ether] | – | – | – | – | – | – | – | – | – | lack of antihypertensive efficacy | – | – | – | – | – | – | – | significant vasodilation activity |

From patent US20220280425A1, “FLAVONOIDS AND LINOLEIC ACID USES IN HYPERTENSION” (King Abdulaziz University, priority 2021, published 2022)
